Measured values reported in publication PMC5107951 (Scientific Reports, 2016).

What was measured:
Type in all cases: binding
α7 nAChR [1] = target: T1, α7 nAChR (Homo sapiens, UniProt P36544)
α7 nAChR [2] = target: T1, α7 nAChR; assay: cell-based
α7 nAChR [3] = target: T1, α7 nAChR; remark: listed apart in the source

T1 sequence (P36544 23-502 limits assumed): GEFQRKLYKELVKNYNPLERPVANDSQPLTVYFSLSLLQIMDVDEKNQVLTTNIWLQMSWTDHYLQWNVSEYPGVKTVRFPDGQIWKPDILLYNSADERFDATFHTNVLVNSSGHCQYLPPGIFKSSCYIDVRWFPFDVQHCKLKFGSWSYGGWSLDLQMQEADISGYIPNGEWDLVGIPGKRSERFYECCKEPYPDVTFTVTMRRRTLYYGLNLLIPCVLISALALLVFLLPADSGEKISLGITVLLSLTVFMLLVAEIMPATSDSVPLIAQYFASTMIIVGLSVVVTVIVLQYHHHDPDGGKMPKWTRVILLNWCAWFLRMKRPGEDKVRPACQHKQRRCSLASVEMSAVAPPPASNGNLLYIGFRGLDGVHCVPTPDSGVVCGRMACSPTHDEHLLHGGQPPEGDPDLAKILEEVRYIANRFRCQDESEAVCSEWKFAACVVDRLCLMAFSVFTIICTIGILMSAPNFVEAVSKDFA

α-cobratoxin
removal of [125I]-PnIA[R9, L10] from α7 nAChR (in words) (α7 nAChR [1]): could not completely remove the radioligand from the target even after a 2-hour incubation | Hill coefficient, “replaceable” binding at the orthosteric site (α7 nAChR [2]): 1.0 ± 0.3 | radioligand [125I]-PnIA[R9, L10] not displaced (α7 nAChR [2]): ≈ 25% | IC50 (α7 nAChR [2]; read-out: IC50 of [125I]-PnIA[R9, L10] binding inhibition, “replaceable” binding at the orthosteric site): 11 ± 3 nM | inhibition of [125I]-PnIA[R5, R9, L10, R14] binding (in words) (α7 nAChR [3]): failed to achieve a 50% inhibition
